In general, IC50 refers to the point on the concentration scale where inhibition reaches its midpoint.

Read-outs that look alike come from different tables or passages of the source.

For the assay, the system named is HBsAg secretion in HepG2.2.15 cells. The experiment in a line: HBsAg assay (chemiluminescence immunoassay of secreted HBsAg in culture supernatant). The assay is classed as cell-based, HBV. The following applies: concentration at which HBsAg secretion was reduced by 50% compared to the no drug control, read-out: IC50 (HBsAg assay). In short, it runs like this: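 IC50 taken from dose-response curves as the concentration halving secreted HBsAg relative to DMSO control. Measured by chemiluminescence immunoassay of culture supernatant from constitutively HBV-expressing HepG2.2.15 cells, seeded at 1.5×10^4/well in duplicate and exposed to three-fold serial compound dilutions at 1% final DMSO.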

[1] abbreviates: Hepatitis B virus, HepG2.2.15, HepG2.2.15 cells.

On to `CCOC(=O)CC1c2cnc(-c3ccccn3)nc2CCN1c1cc(F)c(F)c(OC)c1` (stereo not drawn) [Example 36, ethyl 2-[6-(3,4-difluoro-5-methoxy-phenyl)-2-(2-pyridyl)-7,8-dihydro-5H-pyrido[4,3-d]pyrimidin-5-yl]acetate], for which the IC50 under setting [1] was 39.8 µM.

With `COc1cc(N2CCc3nc(-c4ccccn4)ncc3C2CC(=O)O)cc(F)c1F` (stereo not drawn) [Example 37, 2-[6-(3,4-difluoro-5-methoxy-phenyl)-2-(2-pyridyl)-7,8-dihydro-5H-pyrido[4,3-d]pyrimidin-5-yl]acetic acid], under setting [1], the IC50 worked out at 4.86 µM.

As for `COc1cc(N2CCc3nc(-c4ccccn4)ncc3C2CCO)cc(F)c1F` (stereo not drawn) [Example 38, 2-[6-(3,4-difluoro-5-methoxy-phenyl)-2-(2-pyridyl)-7,8-dihydro-5H-pyrido[4,3-d]pyrimidin-5-yl]ethanol], the IC50 under setting [1] came out at 3.36 µM.

For `COc1cc(N2CCc3nc(-c4ccccn4)ncc3C2C[N+](=O)[O-])cc(F)c1F` (stereo not drawn) [Example 39, 6-(3,4-difluoro-5-methoxy-phenyl)-5-(nitromethyl)-2-(2-pyridyl)-7,8-dihydro-5H-pyrido[4,3-d]pyrimidine], the IC50 under setting [1] came to 1.34 µM.

On to `COc1cc(N2CCc3nc(-c4ncccn4)ncc3C2C)cc(F)c1Cl` (stereo not drawn) [Example 40, 6-(4-chloro-3-fluoro-5-methoxy-phenyl)-5-methyl-2-pyrimidin-2-yl-7,8-dihydro-5H-pyrido[4,3-d]pyrimidine], for which, under setting [1], the IC50 amounted to 4.86 µM.

On to `COc1cc(N2CCc3nc(-c4ncccn4)ncc3C2C)cc(Cl)c1F` (stereo not drawn) [Example 41, 6-(3-chloro-4-fluoro-5-methoxy-phenyl)-5-methyl-2-pyrimidin-2-yl-7,8-dihydro-5H-pyrido[4,3-d]pyrimidine], for which the IC50 (HepG2.2.15 cells) stood at 0.038 µM.

`CC1c2cnc(-c3ncccn3)nc2CCN1c1cc(O)c(F)c(F)c1` (stereo not drawn) [Example 44, 2,3-difluoro-5-(5-methyl-2-pyrimidin-2-yl-7,8-dihydro-5H-pyrido[4,3-d]pyrimidin-6-yl)phenol]: for the setting “HepG2.2.15 cells”, the IC50 came out at 0.494 µM.

For the molecule `CC1c2cnc(-c3ncccn3)nc2CCN1c1cc(F)c(F)c(OCCCS(C)(=O)=O)c1` (stereo not drawn) [Example 47, 6-[3,4-difluoro-5-(3-methylsulfonylpropoxy)phenyl]-5-methyl-2-pyrimidin-2-yl-7,8-dihydro-5H-pyrido[4,3-d]pyrimidine], the IC50 (HepG2.2.15 cells) was found to be 0.036 µM.

Regarding `CC1c2cnc(-c3ncccn3)nc2CCN1c1cc(F)c(F)c(OCCCC(=O)O)c1` (stereo not drawn) [Example 50, 4-[2,3-difluoro-5-(5-methyl-2-pyrimidin-2-yl-7,8-dihydro-5H-pyrido[4,3-d]pyrimidin-6-yl)phenoxy]butanoic acid], the 50% inhibitory concentration (IC50) under setting [1] came out at 1.13 µM.

Take `CC1c2cnc(-c3ncccn3)nc2CCN1c1cc(F)c(F)c(OCCC(=O)O)c1` (stereo not drawn) [Example 51, 3-[2,3-difluoro-5-(5-methyl-2-pyrimidin-2-yl-7,8-dihydro-5H-pyrido[4,3-d]pyrimidin-6-yl)phenoxy]propanoic acid]: the IC50 under setting [1] came out at 2.67 µM.

For the molecule `CC1c2cnc(-c3ncccn3)nc2CCN1c1cc(F)c(F)c(OCCCC(N)=O)c1` (stereo not drawn) [Example 52, 4-[2,3-difluoro-5-(5-methyl-2-pyrimidin-2-yl-7,8-dihydro-5H-pyrido[4,3-d]pyrimidin-6-yl)phenoxy]butanamide], under setting [1], the IC50 came out at 0.11 µM.

Take `CNC(=O)CCCOc1cc(N2CCc3nc(-c4ncccn4)ncc3C2C)cc(F)c1F` (stereo not drawn) [Example 53, 4-[2,3-difluoro-5-(5-methyl-2-pyrimidin-2-yl-7,8-dihydro-5H-pyrido[4,3-d]pyrimidin-6-yl)phenoxy]-N-methyl-butanamide]: under setting [1], the half-maximal inhibitory concentration (IC50) turned out to be 0.103 µM.

For the molecule `CC1c2cnc(-c3ncccn3)nc2CCN1c1cc(F)c(F)c(OCCCCCCCCNC(=O)OC(C)(C)C)c1` (stereo not drawn) [Example 54, tert-butyl N-[8-[2,3-difluoro-5-(5-methyl-2-pyrimidin-2-yl-7,8-dihydro-5H-pyrido[4,3-d]pyrimidin-6-yl)phenoxy]octyl]carbamate], under setting [1], the IC50 turned out to be 0.146 µM.

As to `CC1c2cnc(-c3ncccn3)nc2CCN1c1cc(F)c(F)c(OCCCCCCCCN)c1` (stereo not drawn) [Example 55, 8-[2,3-difluoro-5-(5-methyl-2-pyrimidin-2-yl-7,8-dihydro-5H-pyrido[4,3-d]pyrimidin-6-yl)phenoxy]octan-1-amine], the IC50 under setting [1] was 0.113 µM.

As to `CC1c2cnc(-c3ncccn3)nc2CCN1c1cc(F)c(F)c(OCCCCCNC(=O)OC(C)(C)C)c1` (stereo not drawn) [Example 56, tert-butyl N-[5-[2,3-difluoro-5-(5-methyl-2-pyrimidin-2-yl-7,8-dihydro-5H-pyrido[4,3-d]pyrimidin-6-yl)phenoxy]pentyl]carbamate], the IC50 under setting [1] is 0.055 µM.

On to `CC1c2cnc(-c3ncccn3)nc2CCN1c1cc(F)c(F)c(OCCCCCN)c1` (stereo not drawn) [Example 57, 5-[2,3-difluoro-5-(5-methyl-2-pyrimidin-2-yl-7,8-dihydro-5H-pyrido[4,3-d]pyrimidin-6-yl)phenoxy]pentan-1-amine], for which, under setting [1], the IC50 worked out at 0.11 µM.

Take `CC1c2cnc(-c3ncccn3)nc2CCN1c1cc(F)c(F)c(OCCCCCCNC(=O)OC(C)(C)C)c1` (stereo not drawn) [Example 58, tert-butyl N-[6-[2,3-difluoro-5-(5-methyl-2-pyrimidin-2-yl-7,8-dihydro-5H-pyrido[4,3-d]pyrimidin-6-yl)phenoxy]hexyl]carbamate]: under setting [1], the IC50 is 0.193 µM.

As to `CC1c2cnc(-c3ncccn3)nc2CCN1c1cc(F)c(F)c(OCCCCCCN)c1` (stereo not drawn) [Example 59, 6-[2,3-difluoro-5-(5-methyl-2-pyrimidin-2-yl-7,8-dihydro-5H-pyrido[4,3-d]pyrimidin-6-yl)phenoxy]hexan-1-amine], the IC50 (HepG2.2.15 cells) amounted to 0.075 µM.

Consider `COC(=O)CCCCOc1cc(N2CCc3nc(-c4ncccn4)ncc3C2C)cc(F)c1F` (stereo not drawn) [Example 62, methyl 5-[2,3-difluoro-5-(5-methyl-2-pyrimidin-2-yl-7,8-dihydro-5H-pyrido[4,3-d]pyrimidin-6-yl)phenoxy]pentanoate], for which the IC50 under setting [1] was determined as 0.494 µM.

As for `CC1c2cnc(-c3ncccn3)nc2CCN1c1cc(F)c(F)c(OCCCCC(=O)O)c1` (stereo not drawn) [Example 63, 5-[2,3-difluoro-5-(5-methyl-2-pyrimidin-2-yl-7,8-dihydro-5H-pyrido[4,3-d]pyrimidin-6-yl)phenoxy]pentanoic acid], the IC50 under setting [1] worked out at 0.447 µM.

`CC1c2cnc(-c3ncccn3)nc2CCN1c1cc(F)c(F)c(OCC(=O)O)c1` (stereo not drawn) [Example 65, 2-[2,3-difluoro-5-(5-methyl-2-pyrimidin-2-yl-7,8-dihydro-5H-pyrido[4,3-d]pyrimidin-6-yl)phenoxy]acetic acid]: the IC50 under setting [1] amounted to 16.7 µM.

As to `CC1c2cnc(-c3ncccn3)nc2CCN1c1cc(F)c(F)c(OCC(N)=O)c1` (stereo not drawn) [Example 66, 2-[2,3-difluoro-5-(5-methyl-2-pyrimidin-2-yl-7,8-dihydro-5H-pyrido[4,3-d]pyrimidin-6-yl)phenoxy]acetamide], the IC50 (HepG2.2.15 cells) is 0.168 µM.

Take `CC1c2cnc(-c3ncccn3)nc2CCN1c1cc(F)c(F)c(OCC(F)(F)F)c1` (stereo not drawn) [Example 69, 6-[3,4-difluoro-5-(2,2,2-trifluoroethoxy)phenyl]-5-methyl-2-pyrimidin-2-yl-7,8-dihydro-5H-pyrido[4,3-d]pyrimidine]: under setting [1], the IC50 is 0.033 µM.

For `CC1c2cnc(-c3ncccn3)nc2CCN1c1cc(F)c(F)c(OCC(F)F)c1` (stereo not drawn) [Example 70, 6-[3-(2,2-difluoroethoxy)-4,5-difluoro-phenyl]-5-methyl-2-pyrimidin-2-yl-7,8-dihydro-5H-pyrido[4,3-d]pyrimidine], the IC50 under setting [1] was determined as 0.026 µM.

The values are drawn from patent publication US9845322B2 (Hoffmann-La Roche Inc., priority 2016, dated 2017).
